Results from ChEMBL document CHEMBL1201862, “PubChem BioAssay data set” (2004).
Activity calls are given as the source filed them.

Assays:
Assay type in all cases: functional
[1] = target: T1, Rac GTPase-activating protein 1 (Homo sapiens, UniProt Q9H0H5); assay: blockers of MgcRacGAP-driven Rac1 GTP hydrolysis – biochemical, ADP Hunter fluorescence, primary and confirmatory, confirmation (AID 624330)
T1 sequence (Q9H0H5 whole entry): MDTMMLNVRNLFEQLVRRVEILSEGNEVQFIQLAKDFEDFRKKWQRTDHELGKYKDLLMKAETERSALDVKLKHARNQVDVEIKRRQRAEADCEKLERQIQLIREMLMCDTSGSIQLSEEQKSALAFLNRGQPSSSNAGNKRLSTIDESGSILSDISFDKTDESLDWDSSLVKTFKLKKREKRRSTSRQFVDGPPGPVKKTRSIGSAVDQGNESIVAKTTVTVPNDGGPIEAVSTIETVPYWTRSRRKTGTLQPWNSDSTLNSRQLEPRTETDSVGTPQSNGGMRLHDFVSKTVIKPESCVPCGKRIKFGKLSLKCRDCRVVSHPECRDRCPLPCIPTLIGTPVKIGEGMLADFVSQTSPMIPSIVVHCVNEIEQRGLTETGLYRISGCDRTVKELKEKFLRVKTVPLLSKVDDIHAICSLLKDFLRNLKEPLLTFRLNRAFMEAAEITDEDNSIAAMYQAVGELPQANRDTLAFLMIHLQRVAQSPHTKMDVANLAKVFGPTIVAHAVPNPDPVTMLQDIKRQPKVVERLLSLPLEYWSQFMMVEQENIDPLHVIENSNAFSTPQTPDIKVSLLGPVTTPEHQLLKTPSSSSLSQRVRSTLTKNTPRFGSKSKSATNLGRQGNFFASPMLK

[2] = target: T2, Sentrin-specific protease 8 (Homo sapiens, UniProt Q96LD8);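 note: luminescence read-out of SENP8 inhibition, dose-response confirmation following an ultra-high-throughput screen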
T2 sequence (Q96LD8 whole entry): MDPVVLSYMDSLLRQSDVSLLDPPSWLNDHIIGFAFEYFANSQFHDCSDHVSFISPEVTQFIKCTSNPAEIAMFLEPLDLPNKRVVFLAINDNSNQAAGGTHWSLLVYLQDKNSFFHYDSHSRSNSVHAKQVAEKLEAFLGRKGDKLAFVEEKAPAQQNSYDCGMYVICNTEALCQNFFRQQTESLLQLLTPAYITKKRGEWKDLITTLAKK

[3] = target: T3, Protein skinhead-1 (Caenorhabditis elegans, UniProt P34707)
T3 sequence (P34707 whole entry): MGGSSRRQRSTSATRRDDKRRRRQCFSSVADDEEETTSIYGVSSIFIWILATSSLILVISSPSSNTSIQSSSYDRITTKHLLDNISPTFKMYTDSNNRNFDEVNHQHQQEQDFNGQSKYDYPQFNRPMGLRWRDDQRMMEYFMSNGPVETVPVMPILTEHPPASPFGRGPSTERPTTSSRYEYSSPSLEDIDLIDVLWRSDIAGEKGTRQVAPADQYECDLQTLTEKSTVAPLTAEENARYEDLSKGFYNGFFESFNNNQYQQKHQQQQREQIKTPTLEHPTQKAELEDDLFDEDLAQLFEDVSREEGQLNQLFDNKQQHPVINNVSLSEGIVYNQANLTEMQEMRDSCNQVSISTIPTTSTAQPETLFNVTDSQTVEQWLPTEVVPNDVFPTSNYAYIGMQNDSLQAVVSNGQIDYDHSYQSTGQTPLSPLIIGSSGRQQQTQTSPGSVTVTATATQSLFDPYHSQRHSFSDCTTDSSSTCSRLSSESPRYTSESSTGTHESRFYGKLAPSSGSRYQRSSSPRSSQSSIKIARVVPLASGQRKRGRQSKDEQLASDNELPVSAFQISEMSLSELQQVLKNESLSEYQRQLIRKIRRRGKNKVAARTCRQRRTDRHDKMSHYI

[4] = target: T4, Cysteine protease ATG4B (Homo sapiens, UniProt Q9Y4P1);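 note: Fluorescence-based dose-response confirmation assay measuring inhibition of ATG4B activity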
T4 sequence (Q9Y4P1 whole entry): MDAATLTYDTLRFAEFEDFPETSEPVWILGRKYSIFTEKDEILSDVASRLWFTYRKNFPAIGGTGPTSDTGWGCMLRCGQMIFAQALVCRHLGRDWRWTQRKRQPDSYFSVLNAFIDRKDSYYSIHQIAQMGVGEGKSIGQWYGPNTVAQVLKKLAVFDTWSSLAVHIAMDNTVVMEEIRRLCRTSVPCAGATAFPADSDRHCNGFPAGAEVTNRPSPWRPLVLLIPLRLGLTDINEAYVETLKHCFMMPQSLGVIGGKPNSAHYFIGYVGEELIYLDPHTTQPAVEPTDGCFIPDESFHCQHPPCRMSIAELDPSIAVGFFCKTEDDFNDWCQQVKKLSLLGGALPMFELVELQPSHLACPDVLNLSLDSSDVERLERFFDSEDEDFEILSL

[5] = viability loss in CEM21 cells – cell-based, CellTiter-Glo luminescence, cherry-picked, cytotoxicity control for viral fusion inhibitor project, dose response (AID 652042);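 note: potency for signal decrease meaning cytotoxicity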
[6] = target: T5, Hexokinase-1 (Homo sapiens, UniProt P19367); assay: HK1 enzyme activation by HKDC1 hits – biochemical, selectivity assay for HKDC1 activator project, dose response (AID 504762)
T5 sequence (P19367 whole entry): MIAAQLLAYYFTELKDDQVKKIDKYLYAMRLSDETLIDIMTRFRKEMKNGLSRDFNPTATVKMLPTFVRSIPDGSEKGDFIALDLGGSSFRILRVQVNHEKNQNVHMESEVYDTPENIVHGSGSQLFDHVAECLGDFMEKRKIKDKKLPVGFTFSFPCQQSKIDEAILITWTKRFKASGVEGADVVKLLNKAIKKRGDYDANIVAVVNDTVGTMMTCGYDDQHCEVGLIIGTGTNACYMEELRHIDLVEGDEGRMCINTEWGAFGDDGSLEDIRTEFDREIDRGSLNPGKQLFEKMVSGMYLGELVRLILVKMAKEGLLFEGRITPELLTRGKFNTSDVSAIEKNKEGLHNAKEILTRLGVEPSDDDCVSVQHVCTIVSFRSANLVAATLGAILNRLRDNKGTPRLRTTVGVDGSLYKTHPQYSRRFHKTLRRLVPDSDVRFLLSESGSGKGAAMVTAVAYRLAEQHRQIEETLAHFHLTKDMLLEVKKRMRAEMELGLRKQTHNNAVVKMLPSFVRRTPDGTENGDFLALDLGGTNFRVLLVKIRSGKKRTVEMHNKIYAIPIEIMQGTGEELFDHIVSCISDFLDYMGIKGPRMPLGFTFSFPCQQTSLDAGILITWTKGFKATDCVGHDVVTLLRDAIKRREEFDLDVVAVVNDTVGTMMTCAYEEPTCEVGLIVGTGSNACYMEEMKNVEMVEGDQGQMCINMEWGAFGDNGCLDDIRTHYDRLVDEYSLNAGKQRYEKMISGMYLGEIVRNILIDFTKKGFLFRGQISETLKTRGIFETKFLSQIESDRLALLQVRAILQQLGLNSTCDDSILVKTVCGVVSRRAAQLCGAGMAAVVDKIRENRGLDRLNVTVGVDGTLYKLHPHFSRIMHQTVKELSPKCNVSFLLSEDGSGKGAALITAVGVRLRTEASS

## O=C(Nc1ccccc1Cl)/C(Cl)=C(\Cl)[S+]([O-])c1ccccc1 (stereo unspecified)
[1]
  IC50: 22.8 µM (active)

## O=C(NC1(O)C(=O)c2ccccc2C1=O)c1ccccc1
[2]
  IC50: 4.39 µM (active)

## Cc1ccc(C)c(S(=O)(=O)/N=C2\C=C(NS(=O)(=O)c3ccccc3)C(=O)c3ccccc32)c1
[3]
  IC50: > 100 µM (inactive)

## CCCCCCCCCCCCCCCCn1cc[n+](C)c1
[4]
  IC50: 4.47 µM (active)
[5]
  AC50: 5.2 µM (active)

## Cc1cc(C)nc(/N=c2/ssnc2Cl)c1
[6]
  EC50: 39.9 µM (inactive)
